This note sets out measurements from patent US9365851B2, “Spalt-like transcription factor 4 (SALL4) and uses thereof” (National University of Singapore, priority 2011, dated 2016).

Entries after “also recorded” stand apart in the source; their conditions may differ.

Series [1] concerns HuH-7 and SNU-398 cells. Put plainly: In vivo tumorigenicity of shRNA-transduced HCC cells in NOD/SCID mice. As for the experimental part: 4- to 8-week-old NOD/SIC mice were used. Animal work was done at the Childrens Hospital Boston (CHB) with approval from IACUC. 10×10^6 SNU-398 or 6×10^6 HuH-7 cells infected with viruses expressing scrambled shRNA or E5 shRNA specific for SALL4 (total 300 μL of cell suspension and matrigel in 1:1 ratio) were injected subcutaneously (s.c.) into NOD/SCID mice on the right flank. After injection, mice were examined and tumor volumes were measured at various time points. Tumor volume=π/6×larger diameter×(smaller diameter)^2. Tumor samples were processed for routine histology examination.
A decrease in tumorigenicity in SALL4-knockdown HCC cells was anticipated and an in vivo transplantation assay was carried out to confirm this hypothesis. HuH-7, another HCC cell line with considerably high endogenous SALL4 expression, and SNU-398 cells were transduced with lentivirus expressing either E5 shRNA or control scrambled shRNA and transplanted subcutaneously into right flank of NOD/SCID mice.
To examine if SALL4 has a role in maintaining tumorigenicity of HCC cells, in vivo xenotransplantation assays were carried out. HuH-7 and SNU-398 cells were transduced with lentviruses expressing either shSALL4 1 or Scr shRNA 1 and transplanted subcutaneously into the flanks of NOD/SCID mice.

For series [2], the system named is SALL4A and SALL4B. As to the kind of experiment: SALL4 knock-down in endometrial cancer cells (Western blot, qRT-PCR). It is filed as cell-based, human. As to conditions: AN3CA and HEC-1A. The text has this: In brief, the expression plasmids for human SALL4A and SALL4B were constructed using FUW-Luc-mCh-puro vector (FIG. 43A). SALL4A or SALL4B mutant preserving the same amino acid sequence, but containing triple-point mutations within the SALL4shRNA1 target nucleotide sequence, which renders the transgenes resistant to SALL4 shRNA targeting, were generated using QuikChange site-directed mutagenesis kit (Stratagene) and confirmed by sequencing. Short hairpin RNAs set for human SALL4 in pLKO.1-puro vector were purchased from Open Biosystems (RHS3979) and knockdown efficiency was further evaluated. Two of them, designated as SALL4shRNA1 and SALL4shRNA 2, were selected for subsequent experiments. The sequences for SALL4 shRNAs and Scramble shRNA are listed as following: SALL4shRNA1: […] (SEQ ID NO: 3); SALL4shRNA 2: CTATTTAGCCAAAGGCAAA (SEQ ID NO: 2); Scr-shRNA: […] (SEQ ID NO: 14)
To assess the biological functional role of SALL4 in endometrial cancer, first evaluated was SALL4 expression in a panel of six endometrial cancer cell lines using quantitative real-time PCR to select for appropriate models for our functional studies (FIG. 40). […]
Background: A western blot detects proteins with antibodies after separation by electrophoresis.

Series [3] deals with AML. Put plainly: Cellular uptake of FITC-labeled peptide. It is filed as cell-based, human. As for the experimental part: (§1) Cells were grown typically in 6 well plates (35 mm dish) to 50-70% confluence. Usually the transfect ion efficiency is somehow cell type specific. 2 mM peptide was diluted 4 times in PBS (2 ul+6 ul) (For FITC peptidedo not dilute the 2 mM stock). For each transfection reaction tube with 100 ul PBS+1 ul diluted peptide was set up. Chariot reagent was diluted 1:10 in ddH2O and for each transfection a 94 ul H2O tube+6 ul diluted Chariot was prepared (No master mix for more than 4 transfections). The 2 tubes were carefully mixed by pipetting up and down and incubated 30 min. at room temperature. Medium was aspirated from the dish (well) and cells were overlay with the mix. 400 ul serum free medium was added and cells were incubated further for 1 h 37 C (cell incubator). 500 ul complete medium (with 10% serum) was finally added. If cells are not very sensitive to serum starvation (cancer cell lines) 5% serum could be used.
(§2) Fluorescent and Confocal microscopy was performed on cells treated with FITC labeled peptides with or without of transfection reagent depending on the cell type. Cells were mounted on cover slips using mounting media with DAPI (Invitrogen) and in some cases cytoskeleton dye (Invitrogen).
(§3) In order to evaluate their cellular uptake and localization, the N terminus of these peptides was labeled with fluorescein isothiocyanate (FITC). Despite the net positive charge of these peptides, their uptake by the cells is cell-type specific. Some cell lines such as HL-60 (an AML cell line) allowed the peptide to enter the cells without any modification or carrier, and some cell lines were not penetrable at all. In order to achieve a similar level of peptide delivery in most cell types, a Chariot Transfection Reagent (Active Motif) was used as a peptide carrier, as directed from the manufacturer. All cell types used in the study described herein were subjected to individual evaluation of the percentage of the cells in which the peptide was delivered as well as the duration of time during which they sustained the labeled peptide in the cells. After Chariot treatment, confocal microscopy studies confirmed uptake of these peptides throughout the cell, including nuclei (as evidenced by DAPI overlay, FIG. 1B).

The subject of series [4] is SNU387. Put plainly: Cellular uptake of FITC-labeled peptide. It is filed as cell-based, human. Here is the method:
as §1, §2, §3

Series [5] concerns PTEN/AKT pathway. As to the kind of experiment: PTEN/AKT pathway expression in SNU-387 cells after treatment (Western blot). As to conditions: SNU-387, Western blot. The class given is cell-based, human. The text has this: The induction of Pten expression was not affected when wt peptide was administrated together with a Pten inhibitor. AKT, a molecule with levels of phosphorylation controlled by the expression of Pten was affected by the wt peptide addition accordingly. […] The effect of wt peptide on pAKT was abrogated by the Pten inhibitor. […] In contrast, the protein expression level of endogenous Pten was very high in the none-SALL4 expressing SNU387 cells.
To confirm the involvement of PTEN tumor suppressor in SALL4 peptide-induced reduction of number of viable HCC cells, PTEN expression was analyzed by western blot upon drug treatment. […] Whether the increase in PTEN expression upon SALL4 peptide treatment has an effect in PI3K signalling by dephosphorylating AKT was examined.
To confirm the involvement of the PTEN tumor suppressor in the SALL4 peptide-induced reduction of HCC cell viability, PTEN expression was analyzed by western blot upon drug treatment. […] If the increase in PTEN expression has an effect in PI3K signaling was next examined. PTEN functions as a phosphatase to dephosphorylate AKT.

On to “CTATTTAGCCAAAGGCAAA (short hairpin RNA, chemistry and delivery not given here, further chemistry not given here) [E5 shRNA]”, for which the “mice with tumor formation” value in series [1] (HuH-7, subcutaneous, n=3) was “one out of the three”. Moreover, in series [1] (HuH-7 and SNU-398), the “ability of cells to propagate tumors” value is “greatly reduced the ability of these cells to propagate tumors”. In addition, the survival of mice result in series [1] (HuH-7 and SNU-398, Kaplan-Meier) was “significant survival advantage”. Besides, the “down-regulation of SALL4A and SALL4B” value in series [2] is “could down-regulate SALL4A and SALL4B efficiently”.
In the case of “H-MSRRKQAKPQHI-OH [wt peptide, MSRRKQAKPQHI]”, the “peptide uptake (cells with peptide)” value is recorded as 0% in series [3] (no carrier); 50% in series [3] (with Chariot); 0% in series [4] (SNU387, no carrier); 40% in series [4] (SNU387, with Chariot). Moreover, the PTEN protein expression entry in series [5] is “did not seem to change the expression of Pten significantly”; in series [5] (listed as SALL4 peptide) it was “slight increase in PTEN expression; also recorded: negligible effect on PTEN expression”. For the same substance, the “phosphorylated AKT (pAKT) level” value in series [5] is recorded as “little or no effect”.
